Reference: paper PMC9696794, “Synthesis and Antimicrobial Activity of Short Analogues of the Marine Antimicrobial Peptide Turgencin A: Effects of SAR Optimizations, Cys-Cys Cyclization and Lipopeptide Modifications” (International Journal of Molecular Sciences, 2022)
≈ marks a conversion by molar mass, not a printed value. Read-outs that look alike come from different tables or passages of the source. Where a SMILES comes first, the peptide text is derived from it. Bridges are numbered along the chain shown (N, C = ends). The star is where a group is joined. Lauroyl = CCCCCCCCCCCC(=O)*; Octanoyl = CCCCCCCC(=O)*

Key:
E. coli (Ec, ATCC 25922) = assay: microbe, parasite or virus in culture; type: cell-based, Escherichia coli; details: for MIC: Escherichia coli, ATCC25922
Outline: (§1)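 Cultures grown in Mueller–Hinton broth were adjusted by OD600 to 2.5–3 × 10^4 CFU/mL and mixed with two-fold peptide dilutions from 256 to 1 µg/mL. Plates were incubated at 35 °C with OD595 monitored every hour for 24 h.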

[1] = system: human red blood cells (RBC); assay: Haemolytic activity assay; type: cell-based; details: for Selectivity index (SI) G- / Selectivity index (SI) G+ / Selectivity index (SI) Fungi: Table S3, highest tested concentration used where EC50 above it; for Selectivity index (SI) G-: EC50/GM of Gram-negative strains; for Selectivity index (SI) G+: EC50/GM of Gram-positive strains; for Selectivity index (SI) Fungi: EC50/GM of fungi; for SI (selectivity index = EC50/GM): haemolytic EC50 over GM of MIC against all bacterial strains, Table 1; for RBC Tox. (EC50), haemolytic activity: human RBC, 1 h, 37 °C, concentration giving 50% haemolysis
Outline: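 Washed human erythrocytes (1% hematocrit final) incubated 1 h at 37 °C with agitation with lipopeptides at 500–3.9 μM in PBS (≤1% DMSO), duplicates. Haemoglobin release read at 545 nm relative to 0.1% Triton X-100; EC50 is 50% haemolysis, averaged from three experiments.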

[2] = system: Gram-negative bacterial strains (E. coli and P. aeruginosa); assay: Antibacterial MIC assay, Gram-negative strains together (range or geometric mean); type: cell-based; details: Table S3; MIC >256 set to 256
Outline: as §1

B. subtilis 168 = assay: Bacterial biosensor membrane integrity assay (luciferase, D-luciferin influx); type: cell-based, Bacillus subtilis; details: for time of membranolytic action (luminescence peak not detectable): B. subtilis 168, 25 µg/mL and 50 µg/mL
Source text: Changes in light emission of sensor bacteria constitutively expressing the bacterial lux operon or a eukaryotic luciferase can be used as a proxy for viability and membrane integrity, respectively. Light production of the viability biosensors represents metabolic activity of the bacteria. For the membrane integrity assay on the other hand, light production depends on the influx of the externally added D-luciferin, which at neural pH will not readily pass the intact plasma membrane. An initial increase in light production therefore corresponds with damage to the plasma membrane and a concomitant influx of D-luciferin, while a subsequent drop in light emission indicates diminishing ATP reserves of the dying sensor bacteria.
A membrane integrity assay was performed using two bacterial biosensors, B. subtilis 168 (ATCC 23857) and E. coli K12 (ATCC MC1061). Both strains carry the pCSS962 plasmid that contains a eukaryotic luciferase gene (lucGR), which originate from the click beetle Pyrophorus plagiophthalamus. The assay was performed as described previously. […] D-luciferin potassium salt (Synchem Inc., Elk Grove Village, IL, USA) was added to the cell suspension at a final concentration of 1 mM. Two-fold dilutions (final assay concentration of 50–1.56 µg/mL) of peptides dissolved in Milli-Q water were prepared and added (10 µL per well) to black round-bottom 96-well microtiter plates (Nunc). Milli-Q water served as a negative control used for the normalization purpose and CHX, having known membranolytic activity, was used as a positive control. The plates were loaded into a Synergy H1 Hybrid Reader and the background luminescence was monitored before aliquots (90 µL) of the cell suspension with D-luciferin were added, one well at the time, by an automatic injector. Light emission was recorded every second for 3 min. Each study was performed at least three times independently, and the figures show a representative dataset.

E. coli (ATCC 25922) = assay: Bacterial killing experiment (CFU count after MIC assay); type: cell-based, Escherichia coli
Protocol: A killing experiment was performed on selected lipopeptides by using actively growing cultures of S. aureus (ATCC 9144) and E. coli (ATCC 25922). The procedure was performed as previously described. […] The number of colony-forming units (CFU) was determined after 24 h of incubation at 37 °C. The tests were performed in triplicate.

[3] = at half-MIC, compared to growth control

Structure (SMILES) | MIC (E. coli (Ec, ATCC 25922); E. coli ATCC 25922, 24 h, read-out: Antimicrobial Activity (MIC) Gram − Ec) [µg/mL] | MIC (E. coli (Ec, ATCC 25922); Table 2, laboratory strain, read-out: MIC E. coli ATCC 25922 (from Table 1)) [µg/mL] | Selectivity index (SI) G- [1] | Selectivity index (SI) G+ [1] | Selectivity index (SI) Fungi [1] | SI (selectivity index = EC50/GM) [1] | RBC Tox. (EC50), haemolytic activity [1] [µg/mL] | GM of MIC G- [2] [µg/mL] | time of membranolytic action (luminescence peak not detectable) (B. subtilis 168) [s] | colony-forming units (CFU) after treatment (E. coli (ATCC 25922); at MIC (or above), 24 h) | colony-forming units (CFU) after treatment (E. coli (ATCC 25922); [3]) | MIC E. coli ATCC 25922 (from Table 1) (E. coli (Ec, ATCC 25922); ATCC 25922, 2 h) [µg/mL] | Antimicrobial Activity (MIC) Gram − Ec (E. coli (Ec, ATCC 25922); ATCC 25922, 24 h) [µg/mL] | effect on membrane integrity (B. subtilis 168; B. subtilis 168, within 3 min)
[H]/N=C(\N/C(=N/[H])NCCCCCCNC(=N)NC(=N)Nc1ccc(Cl)cc1)Nc1ccc(Cl)cc1 [Chlorhexidine, reference compound] | 1.6 (≈ 3.17 µM) | 1.6 (≈ 3.17 µM) | – | – | – | – | – | – | – | – | – | – | – | –
CCCCCCCC(=O)N[C@H]1CSSC[C@@H](C(=O)N[C@@H](CCCCN)C(=O)N[C@@H](CC(C)C)C(N)=O)NC(=O)[C@H](CCCCN)NC(=O)[C@H](Cc2c[nH]c3ccccc23)NC(=O)CNC(=O)[C@H](Cc2c[nH]c3ccccc23)NC(=O)[C@H](Cc2c[nH]c3ccccc23)NC(=O)[C@H](CCCCN)NC(=O)[C@H](CCCCN)NC(=O)CNC1=O [Peptide C8-cTurg-2, C8- (CGKKWWGWKC)KL-NH2] (Octanoyl-CGKKWWGWKCKL-NH2; disulfide 1-10) | – | – | 78 | 155 | 35 | 123 | 439 | 6 | < 3 | No CFU were observed | slightly less colony-forming units (CFU) were formed | – | – | –
CCCCCCCCCCCC(=O)N[C@H]1CSSC[C@@H](C(=O)N[C@@H](CCCCN)C(=O)N[C@@H](CC(C)C)C(N)=O)NC(=O)[C@H](CCCCN)NC(=O)[C@H](Cc2c[nH]c3ccccc23)NC(=O)CNC(=O)CNC(=O)[C@@H]2CCCN2C(=O)[C@H](CCCCN)NC(=O)[C@H](CCCCN)NC(=O)CNC1=O [Peptide C12-cTurg-1, C12 -(CGKKPGGWKC)KL-NH2] (Lauroyl-CGKKPGGWKCKL-NH2; disulfide 1-10) | – | – | 27 | 77 | 11 | 55 | 219 | 8 | < 3 | No CFU were observed | slightly less colony-forming units (CFU) were formed | 2 to 4 | 4 | rapid and strong membrane disruptive effect
